Results on 27 molecules are retold here after patent publication US8580832B2, “Substituted phenoxy aminothiazolones as estrogen related receptor-α modulators” (Janssen Pharmaceutica N.V., priority 2007, dated 2013).

Structures can show the parent of a compound that is named as a salt.

In this assay the target is T1, ERR1 (also known as ERR-α or ERR-1) (Homo sapiens, UniProt P11474).
T1 construct: the ^6His-tagged-ERR1 LBD
T1 sequence (P11474 193-421 limits assumed): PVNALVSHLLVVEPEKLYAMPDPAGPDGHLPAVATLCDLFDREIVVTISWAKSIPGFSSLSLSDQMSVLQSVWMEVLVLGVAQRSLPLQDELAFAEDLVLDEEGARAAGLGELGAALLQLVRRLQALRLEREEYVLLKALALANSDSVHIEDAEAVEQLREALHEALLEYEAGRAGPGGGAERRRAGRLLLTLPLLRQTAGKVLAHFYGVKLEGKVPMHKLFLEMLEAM
Kind of assay: TR-FRET assay: disruption of co-activator peptide binding to ERR1 LBD. Conditions: 6His-tagged ERR1 LBD 6 nM, GST-SRC-2 peptide 6 nM, 25° C., 4-18 hours; average of 3 independent experiments. The class given is biochemical. On the procedure: Time-Resolved Fluorescence Resonance Energy Transfer (TR-FRET) experiments were performed to examine the functional response of ERR1 (also known as ERR-α or ERR-1) ligands. The TR-FRET assay described herein relied on the conformation of ERR1 for binding to a co-activator peptide: when a test compound binds to ERR1 and alters its conformation, it can disrupt the binding of the co-activator peptide. The components of this homogeneous secondary assay included: the ^6His-tagged-ERR1 LBD, a GST-labeled-hSRC2 co-activator polypeptide and a fluorescent donor/acceptor pair from CIS bio international htrf/bioassays (Bedford, Mass.) using both an α-GST Europium Cryptate (Eu) label and an α^6His-XL665 (allophycocyanin) fluorophore.
For TR-FRET measurements, the reaction was buffered in 25 mM Tris pH 8, 2.5 mM Hepes, 20 mM KCl, 1 mM DTT, and 0.05 mg/mL BSA (-lipids). […] Reactions were allowed to reach equilibrium at 25° C. for 4-18 hours before collecting data on the Analyst from LJL Biosystems (Molecular Devices Sunnyvale, Calif.). […] Dose response curves were fitted using a hyperbolic equation and the data reported is the average of 3 independent experiments.

Broadly, the EC50 is the midpoint of the concentration-response curve. Low readings indicate a more potent agent, high ones a less potent agent. Consider `COc1cc(/C=C2\SC(NCc3ccncc3)=NC2=O)ccc1Oc1ccc(C#N)cc1C(F)(F)F` [Compound 24, 4-(2-Methoxy-4-{4-oxo-2-[(pyridin-4-ylmethyl)-amino]-4H-thiazol-5-ylidenemethyl}-phenoxy)-3-trifluoromethyl-benzonitrile], for which a half-maximal effect (EC50) was put at 16 nM. This counts as double-digit nanomolar.

In turn, `COc1cc(/C=C2\SC(N3CCN(C)CC3)=NC2=O)ccc1Oc1ccc(C#N)cc1C(F)(F)F` [Compound 7, 4-{2-Methoxy-4-[2-(4-methyl-piperazin-1-yl)-4-oxo-4H-thiazol-5-ylidenemethyl]-phenoxy}-3-trifluoromethyl-benzonitrile] registered an EC50 of 11 nM. This EC50 and that of the molecule before are within 1.5-fold of each other.

For the molecule `O=C1CN(C2=NC(=O)/C(=C/c3ccc(Oc4ccc(Cl)cc4C(F)(F)F)c(F)c3)S2)CCN1` [Example 66, 4-{5-[4-(4-Chloro-2-trifluoromethyl-phenoxy)-3-fluoro-benzylidene]-4-oxo-4,5-dihydro-thiazol-2-yl}-piperazin-2-one], a half-maximal effect (EC50) was put at 4 nM. For `COC(=O)[C@H](CO)NC1=NC(=O)/C(=C/c2ccc(Oc3ccc(C#N)cc3C(F)(F)F)c(OC)c2)S1` [Example 68, 2-{5-[4-(4-Cyano-2-trifluoromethyl-phenoxy)-3-methoxy-benzylidene]-4-oxo-4,5-dihydro-thiazol-2-ylamino}-3-hydroxy-propionic acid methyl ester], a half-maximal response (EC50) required 19 nM. Take `COc1cc(/C=C2\SC(NCCN3CCOCC3)=NC2=O)ccc1Oc1ccc(C#N)cc1C(F)(F)F` [Example 33, 4-{2-Methoxy-4-[2-(2-morpholin-4-yl-ethylamino)-4-oxo-4H-thiazol-5-ylidenemethyl]-phenoxy}-3-trifluoromethyl-benzonitrile]: the EC50 stood at 15 nM. `COCCNC1=NC(=O)/C(=C/c2ccc(Oc3ccc(C#N)cc3C(F)(F)F)c(OC)c2)S1` [Compound 18, 4-{2-Methoxy-4-[2-(2-methoxy-ethylamino)-4-oxo-4H-thiazol-5-ylidenemethyl]-phenoxy}-3-trifluoromethyl-benzonitrile] returned an EC50 of 112 nM. This EC50 lies about 7.5-fold higher than the previous one.

For `COc1cc(/C=C2\SC(N3CCNC(=O)C3)=NC2=O)ccc1Oc1ccc(C(N)=O)cc1C(F)(F)F` [Example 115, 4-{2-Methoxy-4-[4-oxo-2-(3-oxo-piperazin-1-yl)-4H-thiazol-5-ylidenemethyl]-phenoxy}-3-trifluoromethyl-benzamide], the response was half-maximal at 89 nM (EC50). The EC50 values of the last two molecules are within 1.5-fold of each other. On to `COc1cc(/C=C2\SC(N3CCOCC3)=NC2=O)ccc1Oc1ccc(C#N)cc1C(F)(F)F` [Compound 5, 4-[2-Methoxy-4-(2-morpholin-4-yl-4-oxo-4H-thiazol-5-ylidenemethyl)-phenoxy]-3-trifluoromethyl-benzonitrile], for which the midpoint of the response, the EC50, lay at 20 nM. This EC50 lies about 4.5-fold lower than the previous one. Then `N#Cc1ccc(Oc2ccc(/C=C3\SC(NCCCN4CCNC(=O)C4)=NC3=O)cc2F)c(C(F)(F)F)c1` [Example 100, 4-(2-Fluoro-4-{4-oxo-2-[3-(3-oxo-piperazin-1-yl)-propylamino]-4H-thiazol-5-ylidenemethyl}-phenoxy)-3-trifluoromethyl-benzonitrile], with 31 nM. Then `COc1cc(/C=C2\SC(NCCc3ccncc3)=NC2=O)ccc1Oc1ccc(C#N)cc1C(F)(F)F` [Example 28, 4-{2-Methoxy-4-[4-oxo-2-(2-pyridin-4-yl-ethylamino)-4H-thiazol-5-ylidenemethyl]-phenoxy}-3-trifluoromethyl-benzonitrile], with 7 nM; and `COc1cc(/C=C2\SC(NCc3ccsc3)=NC2=O)ccc1Oc1ccc(C#N)cc1C(F)(F)F` [Example 89, 4-(2-Methoxy-4-{4-oxo-2-[(thiophen-3-ylmethyl)-amino]-4H-thiazol-5-ylidenemethyl}-phenoxy)-3-trifluoromethyl-benzonitrile], with 25 nM; and `COc1cc(/C=C2\SC(NCCF)=NC2=O)ccc1Oc1ccc(C#N)cc1C(F)(F)F` [Example 91, 4-{4-[2-(2-Fluoro-ethylamino)-4-oxo-4H-thiazol-5-ylidenemethyl]-2-methoxy-phenoxy}-3-trifluoromethyl-benzonitrile], with 9 nM. In the case of `N#Cc1ccc(Oc2ccc(/C=C3\SC(N4CCOCC4)=NC3=O)cc2F)c(C(F)(F)F)c1` [Compound 6, 4-[2-Fluoro-4-(2-morpholin-4-yl-4-oxo-4H-thiazol-5-ylidenemethyl)-phenoxy]-3-trifluoromethyl-benzonitrile], it took 50 nM to reach a half-maximal effect (EC50). Turning to `COc1cc(/C=C2\SC(NCCN)=NC2=O)ccc1Oc1ccc(C#N)cc1C(F)(F)F` [Example 87, 4-{4-[2-(2-Amino-ethylamino)-4-oxo-4H-thiazol-5-ylidenemethyl]-2-methoxy-phenoxy}-3-trifluoromethyl-benzonitrile HCl salt], a half-maximal effect (EC50) was put at 22 nM. `COc1cc(/C=C2\SC(N3CCN(CCO)CC3)=NC2=O)ccc1Oc1ccc(C#N)cc1C(F)(F)F` [Compound 16, 4-(4-{2-[4-(2-Hydroxy-ethyl)-piperazin-1-yl]-4-oxo-4H-thiazol-5-ylidenemethyl}-2-methoxy-phenoxy)-3-trifluoromethyl-benzonitrile] yielded an EC50 of 19 nM. The EC50 values of the last two molecules are within 1.5-fold of each other. `N#Cc1ccc(Oc2ccc(/C=C3\SC(NCC(F)F)=NC3=O)cc2F)c(C(F)(F)F)c1` [Example 97, 4-{4-[2-(2,2-Difluoro-ethylamino)-4-oxo-4H-thiazol-5-ylidenemethyl]-2-fluoro-phenoxy}-3-trifluoromethyl-benzonitrile]: the EC50 worked out at 40 nM. With `CN1CCN(C2=NC(=O)/C(=C/c3ccc(Oc4ccc(C#N)cc4C(F)(F)F)c(F)c3)S2)CC1=O` [Example 43, 4-{2-Fluoro-4-[2-(4-methyl-3-oxo-piperazin-1-yl)-4-oxo-4H-thiazol-5-ylidenemethyl]-phenoxy}-3-trifluoromethyl-benzonitrile] the figure was 22 nM; with `COc1cc(/C=C2\SC(NC3CC3)=NC2=O)ccc1Oc1ccc(C#N)cc1C(F)(F)F` [Compound 9, 4-[4-(2-Cyclopropylamino-4-oxo-4H-thiazol-5-ylidenemethyl)-2-methoxy-phenoxy]-3-trifluoromethyl-benzonitrile], 15 nM; with `COc1cc(/C=C2\SC(NC3CCNC3)=NC2=O)ccc1Oc1ccc(C#N)cc1C(F)(F)F` (stereo not drawn) [Compound 13, 4-{2-Methoxy-4-[4-oxo-2-(pyrrolidin-3-ylamino)-4H-thiazol-5-ylidenemethyl]-phenoxy}-3-trifluoromethyl-benzonitrile], 34 nM. Then `COc1cc(/C=C2\SC(N3CCC(O)C3)=NC2=O)ccc1Oc1ccc(C#N)cc1C(F)(F)F` (stereo not drawn) [Example 39, 4-{4-[2-(3-Hydroxy-pyrrolidin-1-yl)-4-oxo-4H-thiazol-5-ylidenemethyl]-2-methoxy-phenoxy}-3-trifluoromethyl-benzonitrile], with 9 nM; and `COc1cc(/C=C2\SC(NCC(F)F)=NC2=O)ccc1Oc1ccc(C#N)cc1C(F)(F)F` [Example 92, 4-{4-[2-(2,2-Difluoro-ethylamino)-4-oxo-4H-thiazol-5-ylidenemethyl]-2-methoxy-phenoxy}-3-trifluoromethyl-benzonitrile], with 6 nM; and `N#Cc1ccc(Oc2ccc(/C=C3\SC(NCCCN4CCOCC4)=NC3=O)cc2F)c(C(F)(F)F)c1` [Example 49, 4-{2-Fluoro-4-[2-(3-morpholin-4-yl-propylamino)-4-oxo-4H-thiazol-5-ylidenemethyl]-phenoxy}-3-trifluoromethyl-benzonitrile], with 10 nM. The molecule `COc1cc(/C=C2\SC(N(CCO)CCO)=NC2=O)ccc1Oc1ccc(C(F)(F)F)cc1C(F)(F)F` [Example 117, 2-[Bis-(2-hydroxy-ethyl)-amino]-5-[4-(2,4-bis-trifluoromethyl-phenoxy)-3-methoxy-benzylidene]-thiazol-4-one] gave a half-maximal effective concentration (EC50) of 40 nM.

As for `COc1cc(/C=C2\SC(NCCN3CCCC3=O)=NC2=O)ccc1Oc1ccc(C#N)cc1C(F)(F)F` [Example 36, 4-(2-Methoxy-4-{4-oxo-2-[2-(2-oxo-pyrrolidin-1-yl)-ethylamino]-4H-thiazol-5-ylidenemethyl}-phenoxy)-3-trifluoromethyl-benzonitrile], a half-maximal effect (EC50) was put at 8 nM. Against the preceding molecule, the EC50 is about 5-fold lower. As for `COc1cc(/C=C2\SC(NCCCN3CCNC(=O)C3)=NC2=O)ccc1Oc1ccc(C#N)cc1C(F)(F)F` [Example 101, 4-(2-Methoxy-4-{4-oxo-2-[3-(3-oxo-piperazin-1-yl)-propylamino]-4H-thiazol-5-ylidenemethyl}-phenoxy)-3-trifluoromethyl-benzonitrile], the EC50 was found to be 11 nM. With `CN1CCN(CCNC2=NC(=O)/C(=C/c3ccc(Oc4ccc(C#N)cc4C(F)(F)F)c(F)c3)S2)CC1` [Example 104, 4-(2-Fluoro-4-{2-[2-(4-methyl-piperazin-1-yl)-ethylamino]-4-oxo-4H-thiazol-5-ylidenemethyl}-phenoxy)-3-trifluoromethyl-benzonitrile] the figure was 22 nM; with `COc1cc(/C=C2\SC(NCCO)=NC2=O)ccc1Oc1ccc(C#N)cc1C(F)(F)F` [Example 32, 4-{4-[2-(2-Hydroxy-ethylamino)-4-oxo-4H-thiazol-5-ylidenemethyl]-2-methoxy-phenoxy}-3-trifluoromethyl-benzonitrile], 21 nM.
